{"source": "BindingDB's records for doi:10.1073/pnas.2111172118", "about": "(Baylor College of Medicine, 2021)", "target": "Replicase polyprotein 1ab (Severe acute respiratory syndrome coronavirus 2, UniProt P0DTD1)", "assay": "Enzyme Inhibition Assay and Ki Values Determination", "description": "Initial hydrolysis rates of fluorescent peptide were plotted as a function of compound concentrations and Ki values were obtained by fitting the data into the Morrison equation (42) with SE from triplicates.", "data": [{"smiles": "COc1cc(-c2cccc3[nH]ncc23)cc(CO)c1OCC(=O)N1CCC(Oc2cccc(C(=O)N(C)C)c2)C1", "note": "(stereo unspecified) [CDD-1714]", "values": [{"measurement": "Ki", "result": 24, "unit": "nM"}]}]}
